#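 48-hour exposure; five concentrations; linearly interpolated endpoints. The concentration for 50% growth inhibition is given as GI50. TGI: concentration producing complete growth inhibition.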
# How the values were obtained:
# Assay in all cases: NCI-60 cell line screen, 48 h
# SK-OV-3 ovarian = system: SK-OV-3 ovarian
# OVCAR-4 ovarian = system: OVCAR-4 ovarian
# PC-3 prostate = system: PC-3 prostate
# HCT-15 colon = system: HCT-15 colon
# HCT-116 colon = system: HCT-116 colon
# HOP-62 NSCLC = system: HOP-62 NSCLC
# MALME-3M melanoma = system: MALME-3M melanoma
# HT29 colon = system: HT29 colon
# SNB-75 CNS = system: SNB-75 CNS
# A549 NSCLC = system: A549 NSCLC
# SK-MEL-5 melanoma = system: SK-MEL-5 melanoma
# U251 CNS = system: U251 CNS
# EKVX NSCLC = system: EKVX NSCLC
# MOLT-4 leukemia = system: MOLT-4 leukemia
# MDA-MB-435 = system: MDA-MB-435
# UO-31 renal = system: UO-31 renal
# NCI-H226 lung = system: NCI-H226 lung
# 786-0 renal = system: 786-0 renal
# UACC-62 melanoma = system: UACC-62 melanoma
# SK-MEL-28 melanoma = system: SK-MEL-28 melanoma
# SF-295 CNS = system: SF-295 CNS
# HL-60(TB) leukemia = system: HL-60(TB) leukemia
# OVCAR-5 ovarian = system: OVCAR-5 ovarian
# HCC-2998 colon = system: HCC-2998 colon
# IGROV1 ovarian = system: IGROV1 ovarian
# K-562 leukemia = system: K-562 leukemia
# LOX IMVI melanoma = system: LOX IMVI melanoma
# NCI-H522 lung = system: NCI-H522 lung
# KM12 colon = system: KM12 colon
# BT-549 breast = system: BT-549 breast
# COLO 205 colon = system: COLO 205 colon
# DU-145 prostate = system: DU-145 prostate
# SF-268 CNS = system: SF-268 CNS
# MDA-MB-231 breast = system: MDA-MB-231 breast
# RPMI-8226 leukemia = system: RPMI-8226 leukemia
# NCI/ADR-RES ovarian = system: NCI/ADR-RES ovarian
# SN12C renal = system: SN12C renal
# SF-539 CNS = system: SF-539 CNS
# ACHN renal = system: ACHN renal
# SNB-19 CNS = system: SNB-19 CNS
# MDA-MB-468 breast = system: MDA-MB-468 breast
# SW-620 colon = system: SW-620 colon
# SK-MEL-2 melanoma = system: SK-MEL-2 melanoma
# OVCAR-3 ovarian = system: OVCAR-3 ovarian
# SR leukemia = system: SR leukemia
# OVCAR-8 ovarian = system: OVCAR-8 ovarian
# NCI-H460 lung = system: NCI-H460 lung
# HOP-92 NSCLC = system: HOP-92 NSCLC
# M14 melanoma = system: M14 melanoma
# MCF7 breast = system: MCF7 breast
# NCI-H23 lung = system: NCI-H23 lung
# CCRF-CEM leukemia = system: CCRF-CEM leukemia
# UACC-257 melanoma = system: UACC-257 melanoma
# TK-10 renal = system: TK-10 renal
# CAKI-1 renal = system: CAKI-1 renal
# RXF 393 renal = system: RXF 393 renal
# A498 renal = system: A498 renal
# T-47D breast = system: T-47D breast
# HS 578T breast = system: HS 578T breast
compound,measurement,setting,value
COc1cc(-c2nc3cc(Cl)c(Cl)cc3[nH]2)ccc1OCc1nnc(-c2ccc(Br)cc2)o1,GI50,SK-OV-3 ovarian,11.5 µM
same,TGI,SK-OV-3 ovarian,38.3 µM
same,GI50,OVCAR-4 ovarian,1.92 µM
same,TGI,OVCAR-4 ovarian,4.12 µM
same,GI50,PC-3 prostate,4.27 µM
same,TGI,PC-3 prostate,> 100 µM
same,GI50,HCT-15 colon,2.53 µM
same,TGI,HCT-15 colon,7.36 µM
same,GI50,HCT-116 colon,4.43 µM
same,TGI,HCT-116 colon,31.7 µM
same,GI50,HOP-62 NSCLC,4.17 µM
same,TGI,HOP-62 NSCLC,17.8 µM
same,GI50,MALME-3M melanoma,3.25 µM
same,TGI,MALME-3M melanoma,16.4 µM
same,GI50,HT29 colon,3.61 µM
same,TGI,HT29 colon,> 100 µM
same,GI50,SNB-75 CNS,1.56 µM
same,TGI,SNB-75 CNS,3.87 µM
same,GI50,A549 NSCLC,7.14 µM
same,TGI,A549 NSCLC,> 100 µM
same,GI50,SK-MEL-5 melanoma,3.16 µM
same,TGI,SK-MEL-5 melanoma,13.2 µM
same,GI50,U251 CNS,3.82 µM
same,TGI,U251 CNS,20 µM
same,GI50,EKVX NSCLC,13.3 µM
same,TGI,EKVX NSCLC,> 100 µM
same,GI50,MOLT-4 leukemia,3.72 µM
same,TGI,MOLT-4 leukemia,> 100 µM
same,GI50,MDA-MB-435,3.97 µM
same,TGI,MDA-MB-435,20 µM
same,GI50,UO-31 renal,1.89 µM
same,TGI,UO-31 renal,4.61 µM
same,GI50,NCI-H226 lung,1.82 µM
same,TGI,NCI-H226 lung,4.81 µM
same,GI50,786-0 renal,3.55 µM
same,TGI,786-0 renal,13.1 µM
same,GI50,UACC-62 melanoma,3.05 µM
same,TGI,UACC-62 melanoma,13.5 µM
same,GI50,SK-MEL-28 melanoma,3.59 µM
same,TGI,SK-MEL-28 melanoma,19 µM
same,GI50,SF-295 CNS,3.13 µM
same,TGI,SF-295 CNS,10.7 µM
same,GI50,HL-60(TB) leukemia,2.61 µM
same,TGI,HL-60(TB) leukemia,7.52 µM
same,GI50,OVCAR-5 ovarian,5.59 µM
same,TGI,OVCAR-5 ovarian,> 100 µM
same,GI50,HCC-2998 colon,29.2 µM
same,TGI,HCC-2998 colon,> 100 µM
same,GI50,IGROV1 ovarian,11.5 µM
same,TGI,IGROV1 ovarian,> 100 µM
same,GI50,K-562 leukemia,4.8 µM
same,TGI,K-562 leukemia,> 100 µM
same,GI50,LOX IMVI melanoma,2.93 µM
same,TGI,LOX IMVI melanoma,10.8 µM
same,GI50,NCI-H522 lung,4.53 µM
same,TGI,NCI-H522 lung,> 100 µM
same,GI50,KM12 colon,52 µM
same,TGI,KM12 colon,> 100 µM
same,GI50,BT-549 breast,3.2 µM
same,TGI,BT-549 breast,7.74 µM
same,GI50,COLO 205 colon,24.6 µM
same,TGI,COLO 205 colon,> 100 µM
same,GI50,DU-145 prostate,10.1 µM
same,TGI,DU-145 prostate,> 100 µM
same,GI50,SF-268 CNS,6.22 µM
same,TGI,SF-268 CNS,> 100 µM
same,GI50,MDA-MB-231 breast,2.22 µM
same,TGI,MDA-MB-231 breast,5.3 µM
same,GI50,RPMI-8226 leukemia,2.68 µM
same,TGI,RPMI-8226 leukemia,8.25 µM
same,GI50,NCI/ADR-RES ovarian,3.42 µM
same,TGI,NCI/ADR-RES ovarian,> 100 µM
same,GI50,SN12C renal,2.56 µM
same,TGI,SN12C renal,7.33 µM
same,GI50,SF-539 CNS,1.81 µM
same,TGI,SF-539 CNS,3.51 µM
same,GI50,ACHN renal,2.19 µM
same,TGI,ACHN renal,4.99 µM
same,GI50,SNB-19 CNS,14.7 µM
same,TGI,SNB-19 CNS,> 100 µM
same,GI50,MDA-MB-468 breast,5.98 µM
same,TGI,MDA-MB-468 breast,28.4 µM
same,GI50,SW-620 colon,5.07 µM
same,TGI,SW-620 colon,> 100 µM
same,GI50,SK-MEL-2 melanoma,15.7 µM
same,TGI,SK-MEL-2 melanoma,35 µM
same,GI50,OVCAR-3 ovarian,3.33 µM
same,TGI,OVCAR-3 ovarian,10.9 µM
same,GI50,SR leukemia,2.21 µM
same,TGI,SR leukemia,5.9 µM
same,GI50,OVCAR-8 ovarian,2.85 µM
same,TGI,OVCAR-8 ovarian,7.78 µM
same,GI50,NCI-H460 lung,6.43 µM
same,TGI,NCI-H460 lung,> 100 µM
same,GI50,HOP-92 NSCLC,2.35 µM
same,TGI,HOP-92 NSCLC,7.81 µM
same,GI50,M14 melanoma,6.68 µM
same,TGI,M14 melanoma,25.3 µM
same,GI50,MCF7 breast,3.28 µM
same,TGI,MCF7 breast,27.5 µM
same,GI50,NCI-H23 lung,4.99 µM
same,TGI,NCI-H23 lung,> 100 µM
same,GI50,CCRF-CEM leukemia,6.07 µM
same,TGI,CCRF-CEM leukemia,> 100 µM
same,GI50,UACC-257 melanoma,11.7 µM
same,TGI,UACC-257 melanoma,35.6 µM
same,GI50,TK-10 renal,4.37 µM
same,TGI,TK-10 renal,17.5 µM
same,GI50,CAKI-1 renal,13 µM
same,TGI,CAKI-1 renal,28.3 µM
same,GI50,RXF 393 renal,1.87 µM
same,TGI,RXF 393 renal,4.61 µM
same,GI50,A498 renal,2.9 µM
same,TGI,A498 renal,9.17 µM
same,GI50,T-47D breast,2.06 µM
same,TGI,T-47D breast,4.95 µM
same,GI50,HS 578T breast,2.72 µM
same,TGI,HS 578T breast,8.27 µM

# — PubChem BioAssay (NCI)
